Data taken from patent US8158165B2, “Preventative treatment and remission of allergic diseases” (CSIR, priority 2006, dated 2012).
“And” between values parts separate entries of the source, which are not always exact repeats. Equal entries are not always repeated.

Legend:
[1] = system: Ovalbumin-induced bronchoconstriction; conditions: assay protocol reference data; cited from earlier work
IL-8 = IL-8 in bronchoalveolar lavage fluid after ovalbumin challenge (ELISA); format: in vivo, guinea pig; conditions: BALF, WG-1-101 500 mg/kg PO, Phenidone 30 mg/kg IV
Method: (§1) The test substance at 500 mg/kg was administered orally twice daily for 3 consecutive days and an additional final dose was added on testing day, then, one hour after final dose, the animals were injected intravenously (1 ml/kg) with a “cocktail”: Indomethacin (10 mg/kg), Mepyramine (2 mg/kg), and Propranolol (100 μg/kg), followed by challenge with ovalbumin 5 minutes later. […] Bronchoalveolar lavage fluid was retrieved after instilling 5 ml of phosphate buffered saline for 2 times. TNF-α, IL-1β and IL-8 in bronchoalveolar lavage fluid (BALF) supernatants were measured with ELISA after ovalbumin challenge. One-way ANOVA followed by Dunnett's Test was applied for comparison between the vehicle control and test compound-treated groups. P<0.05 is considered significant.
(§2) Bronchoalveolar lavage fluid (BALF) samples in the WG-I-101-treated group were prepared for measurements of TNF-α, IL-1β and IL-8 after ovalbumin challenge. One-way ANOVA followed by Dunnett's test was applied for comparison between the vehicle control and test compound-treated groups. P<0.05 is considered significant.
(§3) Bronchoalveolar lavage fluid (BALF) samples in the WG-I-101 treated group were prepared for measurements of TNF-α, IL-1β and IL-8 after Ovalbumin challenge. TNF-α, IL-1β and IL-8 levels of each sample were assessed using TNF-α, IL-1β and IL-8 ELISA kits, respectively. […]

IL-1β = IL-1β in bronchoalveolar lavage fluid after ovalbumin challenge (ELISA); format: in vivo, guinea pig; conditions: BALF, WG-1-101 500 mg/kg PO, Phenidone 30 mg/kg IV
Method: as §1, §2, §3

[2] = system: Ovalbumin-induced bronchoconstriction; assay: Pulmonary, Antigen/Lipoxygenase Metabolites, in Guinea Pigs (intratracheal pressure); format: in vivo, guinea pig
Method: Assays were performed at MDS Pharma in Taiwan and reference standards used as an integral part of each assay to ensure the validity of the results obtained. The biological assay employed was the Pulmonary, Antigen/Lipoxygenase Metabolites assay and the diethyl ether extract of Siphonochilus aethiopicus was evaluated for possible activity in this in vivo assay.
WG-I-101 was suspended in 0.5% CMC/0.1% Tween 80. The test substance at a dose of 500 mg/kg was given orally twice daily for 3 consecutive days and an additional final dose was added at one hour before challenge of Ovalbuminon testing day. Dosing volume of 10 ml/kg was used. The formulation is summarized as follows: […]
Groups of 5 Dunkin-Hartley derived male guinea pigs weighing 400±50 g (final day) were employed. The animals were anesthetized with pentobarbital sodium (50 mg/kg IP, with an additional 15 mg/kg IP if needed). An aluminum plate kept at 37° C. through water flow from a bath was placed beneath the test animals to maintain body temperature. The trachea was cannulated and a rodent ventilator (Harvard, USA) was used for artificial ventilation (10 ml/kg, 50 breaths/minute). Through a side-arm of the cannula, intratracheal pressure (ITP) was measured using a Pneumatic pulse transducer (Narco Biosystem, USA). A carotid artery was cannulated (PE50, Clay Adams, USA) for measurements of blood pressure using a Stathem P23×L transducer (Viggo-Spectramed, USA) and heart rate was obtained from lead II ECG. Guinea pigs were sensitized with IP injections of ovalbumin (0.5 μg/0.5 ml/animal) and Al (OH)3 (1 mg/0.5 ml/animal) on days 1 and 8. The animals were then challenged with 15 μg/kg of Ovalbumin (IV) between days 19 and 23 and bronchopulmonary constriction was recorded as an increase in ITP.
as §1
Anesthetized and artificially ventilated guinea pigs previously sensitized were pretreated with Mepyramine 2 mg/kg, Indomethacin 10 mg/kg and Propranol 0.1 mg/kg for 5 minutes; arterial blood pressure (BP, mm Hg), heart rate (HR, beats/min.) and tracheal pressure (TP, cm H2O) were recorded after oral dosing for 3 days. At the end of chronic dosing, antigen (Ovalbumin 15 μg/kg IV)-induced increase in tracheal pressure (ITP) above an initial baseline of 6 cm H2O was then recorded as an indication of bronchoconstriction. Percent (%) inhibition is calculated according to the formula of [Increase in Tracheal Pressure (vehicle-treated)]−[Increase in Tracheal Pressure (test substance-treated)/[Increase in Tracheal Pressure (vehicle-treated)]×100%. • 1. ΔITP: Changes in ITP over corresponding baseline values; (−) Oval: Response to vehicle or test substance alone and before Ovalbumin challenge; (+) Oval: Changes in response to Ovalbumin challenge. • 2. % Control: ITP response to test substance, vehicle expressed in terms of percentage of the ITP response to Ovalbumin (15 μg/kg IV) in the vehicle-treated control (100%). • 3. […]
The trachea is cannulated and the guinea pig ventilated with a Harvard rodent respirator in a closed system. Tracheal pressure is recorded through a side-arm of the cannula connected to a P23ID Statham transducer. […]

TNF-α = TNF-α in bronchoalveolar lavage fluid after ovalbumin challenge (ELISA); format: in vivo, guinea pig; conditions: BALF, WG-1-101 500 mg/kg PO, Phenidone 30 mg/kg IV
Method: as §1, §2, §3

Compound: CN1[C@@H]2CC[C@H]1C[C@@H](OC(=O)C(CO)c1ccccc1)C2 (stereo partly drawn) [Atropine]
- MED mg/kg i.v. [1]: >10 mg/kg

Compound: CCCc1c(OCCCCc2nnn[nH]2)ccc(C(C)=O)c1O [LY-171883, 1[2-hyroxy-3-propyl-4-[4-(1H-tetrazol-5-yl)butoxy]phenyl]ethanone]
- MED mg/kg i.v. [1]: 30 mg/kg

Compound: CC(C)(C)NCC(O)c1ccc(O)c(CO)c1 (stereo not drawn) [Salbutamol]
- MED mg/kg i.v. [1]: 0.1 mg/kg

Compound: CC(Cc1ccc(O)c(O)c1)C(C)Cc1ccc(O)c(O)c1 (stereo not drawn) [NDGA, nordihydroguaretic acid]
- MED mg/kg i.v. [1]: 10 mg/kg

Compound: O=C(O)c1cc(=O)c2c(OCC(O)COc3cccc4oc(C(=O)O)cc(=O)c34)cccc2o1 [Cromolyn Sodium]
- MED mg/kg i.v. [1]: >100 mg/kg

Compound: O=C1CCN(c2ccccc2)N1 [Phenidone]
- IL-8 Cont(pg/ml), X (IL-8; group mean, * P<0.05 vs vehicle): 0.97* pg/ml
- IL-8 Cont(pg/ml) (IL-8; individual animals N 1-5): 3.63 pg/ml and 1.22 pg/ml and 0.00 pg/ml (3×)
- IL-1β (pg/ml), X (IL-1β; group mean): 1.21 pg/mL
- IL-1β (IL-1β; individual animals N 1-5): 3.10 pg/mL and 0.24 pg/mL and 0.46 pg/mL and 2.25 pg/mL and 0.00 pg/mL
- % Control ([2]; ITP response to test substance as % of Ovalbumin response in vehicle control): 0%
- ΔITP (cm H2O) (+) Oval, X ± SEM ([2]; group mean of 5, response to Ovalbumin 15 μg/kg IV, WG-1-101 500 mg/kg PO bidx3 & qdx1, Phenidone 30 mg/kg IV qdx1): 1.8 ± 0.8 cm H2O
- ΔITP (cm H2O) (−) Oval, X ± SEM ([2]; group mean, before Ovalbumin challenge, WG-1-101 500 mg/kg PO bidx3 & qdx1, Phenidone 30 mg/kg IV qdx1): 0 cm H2O
- ΔITP (cm H2O) (−) Oval ([2]; individual animals N 1-5, before Ovalbumin challenge, WG-1-101 500 mg/kg PO bidx3 & qdx1, Phenidone 30 mg/kg IV qdx1): 0 cm H2O
- ΔITP (cm H2O) (+) Oval ([2]; individual animals N 1-5, response to Ovalbumin 15 μg/kg IV, WG-1-101 500 mg/kg PO bidx3 & qdx1, Phenidone 30 mg/kg IV qdx1): 4.8 cm H2O and 1.8 cm H2O and 1.2 cm H2O and 0.6 cm H2O (2×)
- % Inhibition of Ovalbumin-induced bronchoconstriction ([2]; relative to vehicle-treated control, WG-1-101 500 mg/kg PO bidx3 & qdx1, Phenidone 30 mg/kg IV qdx1): (89) %
- MED mg/kg i.v. [1]: 30 mg/kg
- TNF-α (pg/ml), X (TNF-α; group mean): 7.62 pg/mL
- TNF-α (TNF-α; individual animals N 1-5): 12.03 pg/mL and 7.0 pg/mL and 3.79 pg/mL and 8.96 pg/mL and 6.33 pg/mL
